In paper PMC7970697, “Inhibition and Induction by Poziotinib of Different Rat Cytochrome P450 Enzymes In Vivo and in an In Vitro Cocktail Method” (Frontiers in Pharmacology, 2021):

Assay: Pharmacokinetics of probe substrates in rats with or without poziotinib pre-treatment
Conditions: for CL/F: CLz/F; for MRT last: MRT(0–t); for MRT inf: MRT(0–∞); for Vd/F: Vz/F; for half-life: t1/2z; for AUC(0–t) of treated group as fold of control group value / CLz/F of treated group as fold of control group value: poziotinib 5 mg/kg 7 days vs probes only (Discussion)
Experimental: Samples were analyzed by a UPLC-MS/MS system equipped with a triple quadrupole mass spectrometer (Waters Corp., Milford, MA, United States) and Acquity UPLC BEH C18 column (1.7 μm, 2.1 × 50 mm) at 40°C. The mobile phase consisted of acetonitrile (A) and 0.1% formic acid (B) with a linear gradient elution at 0.4 ml/min for 3 min.
Twelve male Sprague-Dawley rats (230 ± 20 g) were randomly divided into treated and control groups, with 6 in each group. […] The supernatant was mixed with 200 μL of acetonitrile and 20 μL of 0.5 μg/ml diazepam (IS), vortexed for 30 s, centrifuged at 13,000 rpm for 5 min, and the supernatant was injected into the UPLC-MS/MS system for analysis.
Pharmacokinetic parameters were calculated using DAS software (Version 3.2.8). SPSS software (version 16.0; SPSS Inc., Chicago, IL, United States) was used to analyze the significance of differences between the main pharmacokinetic parameters. p < 0.05 was considered statistically significant. GraphPad (version 8.0; GraphPad Software Inc., San Diego, CA, United States) was used to calculate IC50 and plot the plasma concentration-time curves and inhibition plots (type of inhibition, time- and concentration-dependence).

[1] = male, Sprague-Dawley, rat, in vivo, po, 10 mg/kg, Control group: oral probe cocktail only (10 mg/kg; tolbutamide 1 mg/kg), rats, n = 6
[2] = male, Sprague-Dawley, rat, in vivo, po, 10 mg/kg, Treated group: oral probe cocktail (10 mg/kg; tolbutamide 1 mg/kg) after 7 days oral poziotinib 5 mg/kg, rats, n = 6
[3] = rats, poziotinib 5 mg/kg 7 days vs probes only
[4] = male, Sprague-Dawley, rat, in vivo, po, 10 mg/kg
[5] = male, Sprague-Dawley, rat, plasma, po, 10 mg/kg, Control group: oral probe cocktail only (10 mg/kg; tolbutamide 1 mg/kg), rats, n = 6
[6] = male, Sprague-Dawley, rat, plasma, po, 10 mg/kg, Treated group: oral probe cocktail (10 mg/kg; tolbutamide 1 mg/kg) after 7 days oral poziotinib 5 mg/kg, rats, n = 6
[7] = male, Sprague-Dawley, rat, in vivo, po, Control group: oral probe cocktail only (10 mg/kg; tolbutamide 1 mg/kg), rats, n = 6
[8] = male, Sprague-Dawley, rat, in vivo, po, Treated group: oral probe cocktail (10 mg/kg; tolbutamide 1 mg/kg) after 7 days oral poziotinib 5 mg/kg, rats, n = 6
[9] = male, Sprague-Dawley, rat, in vivo, po
[10] = male, Sprague-Dawley, rat, plasma, po, Control group: oral probe cocktail only (10 mg/kg; tolbutamide 1 mg/kg), rats, n = 6
[11] = male, Sprague-Dawley, rat, plasma, po, Treated group: oral probe cocktail (10 mg/kg; tolbutamide 1 mg/kg) after 7 days oral poziotinib 5 mg/kg, rats, n = 6

With Cc1ncc2n1-c1ccc(Cl)cc1C(c1ccccc1F)=NC2 [Midazolam] the AUC(0-t) (male, Sprague-Dawley, rat, in vivo, po, 10 mg/kg, AUC(0–t), Control group: oral probe cocktail only (10 mg/kg; tolbutamide 1 mg/kg), rats, n = 6) was 1350 ng·h/mL, the AUC(0-t) (male, Sprague-Dawley, rat, in vivo, po, 10 mg/kg, AUC(0–t), Treated group: oral probe cocktail (10 mg/kg; tolbutamide 1 mg/kg) after 7 days oral poziotinib 5 mg/kg, rats, n = 6) was 1280 ng·h/mL and the AUC(0-inf) [1] was 1360 ng·h/mL. It also gave an AUC(0-inf) [2] of 1310 ng·h/mL, a CL/F [1] of 128 mL/min/kg and a CL/F [2] of 139 mL/min/kg. It also gave a Cmax [1] of 868 ± 251 ng/mL, a Cmax [2] of 582 ± 296 ng/mL and an MRT last [1] of 1.58 ± 0.23 h. The MRT last [2] was 2.01 ± 0.43 h, the MRT inf [1] was 1.62 ± 0.24 h and the MRT inf [2] was 2.44 ± 1.12 h. The Tmax (male, Sprague-Dawley, rat, in vivo, po, 10 mg/kg, Tmax, Control group: oral probe cocktail only (10 mg/kg; tolbutamide 1 mg/kg), rats, n = 6) was 0.33 ± 0.13 h, the Tmax (male, Sprague-Dawley, rat, in vivo, po, 10 mg/kg, Tmax, Treated group: oral probe cocktail (10 mg/kg; tolbutamide 1 mg/kg) after 7 days oral poziotinib 5 mg/kg, rats, n = 6) was 0.58 ± 0.34 h and the Vd/F [1] was 18.6 ± 5.95 L/kg. For the same compound, the Vd/F [2] was 32.8 ± 20.8 L/kg, the half-life [1] was 1.7 ± 0.55 h and the half-life [2] was 2.67 ± 1.39 h. The “difference in main pharmacokinetic parameters between treated and control group (in words)” value [3] was “not significant”.
For CC(NC(C)(C)C)C(=O)c1cccc(Cl)c1 (centres unmarked) [Bupropion], the AUC(0-t) [4] was 405 ± 87.3 ng·h/mL, the “AUC(0–∞)” value [4] was 421.07 ± 94.21 ng·h/mL and the “MRT(0–t)” value [4] was 2.37 ± 0.53 h. For the same compound, the “MRT(0–∞)” value [4] was 2.87 ± 1.15 h, the Tmax [4] was 0.46 ± 0.29 h and the t1/2z [4] was 2.51 ± 1.34 h. For the same compound, the AUC(0-inf) [4] was 613 ± 130 ng·h/mL, the MRT last [4] was 3.33 ± 0.84 h and the MRT inf [4] was 4.34 ± 1.58 h. For the same compound, the Tmax (male, Sprague-Dawley, rat, in vivo, po, 10 mg/kg, Tmax) was 0.75 ± 0.27 h, the half-life [4] was 3.35 ± 1.21 h and the AUC(0-t) (male, Sprague-Dawley, rat, plasma, po, 10 mg/kg) was 565 ± 92.5 ng·h/mL. It also gave a CL/F [5] of 412 mL/min/kg, a CL/F [6] of 281 mL/min/kg and a Cmax [5] of 170 ± 60.1 ng/mL. For the same compound, the Cmax [6] was 173 ± 60.8 ng/mL, the Vd/F [5] was 85.4 ± 37.7 L/kg and the Vd/F [6] was 81.8 ± 38.3 L/kg. For the same compound, the “AUC(0–t) fold higher in treated than control group” value [3] was 1.39 fold, the “AUC(0–∞) fold higher in treated than control group” value [3] was 1.46 fold and the “CLz/F fold lower in treated than control group” value [3] was 1.47 fold. For the same compound, the “MRT(0–t) fold higher in treated than control group” value [3] was 1.41 fold, the “Tmax fold higher in treated than control group” value [3] was 1.63 fold and the “Vz/F fold lower in treated than control group” value [3] was 1.04 fold. For the same compound, the “AUC(0–t) of treated group as fold of control group value” (rats) was 1.40 fold and the “CLz/F of treated group as fold of control group value” (rats) was 0.68 fold.
For COc1ccc2c(c1)[C@]13CCCC[C@@H]1[C@H](C2)N(C)CC3 [Dextromethorphan], the AUC(0-t) (male, Sprague-Dawley, rat, in vivo, po, AUC(0–t), Control group: oral probe cocktail only (10 mg/kg; tolbutamide 1 mg/kg), rats, n = 6) was 575 ± 77.7 ng·h/mL, the AUC(0-t) (male, Sprague-Dawley, rat, in vivo, po, AUC(0–t), Treated group: oral probe cocktail (10 mg/kg; tolbutamide 1 mg/kg) after 7 days oral poziotinib 5 mg/kg, rats, n = 6) was 640 ± 197 ng·h/mL and the AUC(0-inf) [7] was 586 ± 79.3 ng·h/mL. For the same compound, the AUC(0-inf) [8] was 722 ± 231 ng·h/mL, the CL/F [7] was 289 mL/min/kg and the CL/F [8] was 250 mL/min/kg. For the same compound, the Cmax [7] was 152 ± 57.7 ng/mL, the Cmax [8] was 153 ± 42.3 ng/mL and the MRT last [7] was 3.12 ± 0.37 h. It also gave an MRT last [8] of 3.54 ± 0.51 h, an MRT inf [7] of 3.35 ± 0.47 h and an MRT inf [8] of 5.19 ± 2.68 h. The Tmax (male, Sprague-Dawley, rat, in vivo, po, Tmax, Control group: oral probe cocktail only (10 mg/kg; tolbutamide 1 mg/kg), rats, n = 6) was 1.04 ± 0.56 h, the Tmax (male, Sprague-Dawley, rat, in vivo, po, Tmax, Treated group: oral probe cocktail (10 mg/kg; tolbutamide 1 mg/kg) after 7 days oral poziotinib 5 mg/kg, rats, n = 6) was 1.58 ± 0.92 h and the Vd/F [7] was 49 ± 10.7 L/kg. It also gave a Vd/F [8] of 75.5 ± 33.1 L/kg, a half-life [7] of 1.98 ± 0.43 h and a half-life [8] of 3.72 ± 2.09 h. For the same compound, the “difference in main pharmacokinetic parameters between treated and control group (in words)” value [3] was “no significant differences”.
CCCCNC(=O)NS(=O)(=O)c1ccc(C)cc1 [Tolbutamide] showed a Tmax [9] of 2.67 ± 0.52 h, a t1/2z [9] of 9.10 ± 4.20 h and a Tmax (male, Sprague-Dawley, rat, in vivo, po, Tmax) of 2.33 ± 0.52 h. It also gave a half-life [9] of 12.7 ± 4.84 h, a CL/F [10] of 0.333 mL/min/kg and a Cmax [10] of 3700 ng/mL. It also gave a Cmax [11] of 4920 ng/mL, a Vd/F [10] of 0.27 ± 0.04 L/kg and a Vd/F [11] of 0.25 ± 0.1 L/kg. The “AUC (0–∞) increasing by, treated vs control group” value [3] was 51.60%, the “CLz/F lower than control group by” value [3] was 50% and the “AUC(0–t) of treated group as fold of control group value” (rats) was 1.43 fold. The “CLz/F of treated group as fold of control group value” (rats) was 0.5 fold.
